Each structure is given as a SMILES string.

The target of the assay is T1, human Nav1.7 (hNav1.7) (Homo sapiens, UniProt Q15858).
T1 construct: expressed in transfected cells
T1 sequence (Q15858 whole entry): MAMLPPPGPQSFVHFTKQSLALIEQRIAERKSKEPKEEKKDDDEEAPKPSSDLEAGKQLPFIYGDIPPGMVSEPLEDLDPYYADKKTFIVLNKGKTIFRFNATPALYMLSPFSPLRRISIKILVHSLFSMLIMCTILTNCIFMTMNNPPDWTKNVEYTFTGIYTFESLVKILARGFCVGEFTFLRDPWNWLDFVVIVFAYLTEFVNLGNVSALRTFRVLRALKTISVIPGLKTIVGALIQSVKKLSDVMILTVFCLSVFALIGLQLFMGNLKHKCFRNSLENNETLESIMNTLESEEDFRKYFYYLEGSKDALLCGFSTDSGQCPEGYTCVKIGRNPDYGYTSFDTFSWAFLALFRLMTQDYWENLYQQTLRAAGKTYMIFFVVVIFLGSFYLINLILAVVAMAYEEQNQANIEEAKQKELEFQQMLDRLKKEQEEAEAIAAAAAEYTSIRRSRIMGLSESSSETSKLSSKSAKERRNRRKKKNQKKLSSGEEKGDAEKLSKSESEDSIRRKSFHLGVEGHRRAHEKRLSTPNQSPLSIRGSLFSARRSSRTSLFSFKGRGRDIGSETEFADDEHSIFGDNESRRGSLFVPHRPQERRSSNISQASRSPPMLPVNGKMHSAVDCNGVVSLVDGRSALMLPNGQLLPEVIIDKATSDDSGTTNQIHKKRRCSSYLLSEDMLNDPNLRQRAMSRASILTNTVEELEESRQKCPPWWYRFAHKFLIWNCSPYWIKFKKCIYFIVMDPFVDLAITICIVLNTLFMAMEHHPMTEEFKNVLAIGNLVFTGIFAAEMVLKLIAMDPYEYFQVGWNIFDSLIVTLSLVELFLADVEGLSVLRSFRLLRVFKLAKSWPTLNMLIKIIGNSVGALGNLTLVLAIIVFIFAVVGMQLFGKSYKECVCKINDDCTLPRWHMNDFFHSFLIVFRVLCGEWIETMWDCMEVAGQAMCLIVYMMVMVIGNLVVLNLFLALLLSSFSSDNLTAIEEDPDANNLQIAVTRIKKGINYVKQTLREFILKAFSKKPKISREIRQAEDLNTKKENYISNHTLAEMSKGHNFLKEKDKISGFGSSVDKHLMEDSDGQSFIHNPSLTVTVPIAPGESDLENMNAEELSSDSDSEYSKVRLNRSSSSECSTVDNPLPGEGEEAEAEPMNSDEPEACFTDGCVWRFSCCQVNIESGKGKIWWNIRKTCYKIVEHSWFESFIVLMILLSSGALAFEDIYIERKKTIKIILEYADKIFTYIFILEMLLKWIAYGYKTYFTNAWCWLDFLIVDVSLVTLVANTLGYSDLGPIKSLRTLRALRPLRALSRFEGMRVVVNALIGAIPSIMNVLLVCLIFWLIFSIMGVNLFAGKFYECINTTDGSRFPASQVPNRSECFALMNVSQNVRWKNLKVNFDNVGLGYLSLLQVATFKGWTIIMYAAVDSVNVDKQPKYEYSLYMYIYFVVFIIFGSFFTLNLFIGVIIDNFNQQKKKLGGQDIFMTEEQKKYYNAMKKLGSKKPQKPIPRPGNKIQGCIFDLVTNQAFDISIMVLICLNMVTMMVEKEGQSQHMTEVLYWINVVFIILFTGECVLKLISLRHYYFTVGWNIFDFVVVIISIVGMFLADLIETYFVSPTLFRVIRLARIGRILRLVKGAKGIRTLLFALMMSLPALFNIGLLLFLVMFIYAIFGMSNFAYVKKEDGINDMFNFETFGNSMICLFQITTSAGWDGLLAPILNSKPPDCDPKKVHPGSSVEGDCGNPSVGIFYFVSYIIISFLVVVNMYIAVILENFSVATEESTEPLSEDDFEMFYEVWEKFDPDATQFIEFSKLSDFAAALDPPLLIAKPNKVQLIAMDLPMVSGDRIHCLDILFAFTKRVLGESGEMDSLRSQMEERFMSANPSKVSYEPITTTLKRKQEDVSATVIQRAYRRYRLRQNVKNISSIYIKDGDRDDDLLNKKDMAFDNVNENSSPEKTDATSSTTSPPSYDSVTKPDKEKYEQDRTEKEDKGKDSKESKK
As to the kind of experiment: hNav1.7 whole-cell patch-clamp electrophysiology (automated PatchXpress 7000A or manual) in stably expressing 293 cells. The format is cell-based. The note with it: average IC50, human Nav1.7. The method, then:
Compounds were tested on human Nav1.7 (hNav1.7) expressed stably in 293 cells, which have no endogenous sodium channels. Two forms of whole-cell patch-clamp assays were used. In both, peak current through Nav1.7 was evoked by a depolarizing voltage pulse, and currents were monitored as a function of time in response to exposure to several different concentrations of drug. Automated electrophysiology uses the PatchXpress 7000A system. Up to sixteen cells at a time were voltage-clamped in parallel, and the steady-state voltage dependence of inactivation was determined experimentally for each cell. For each cell, fractional inactivation was set at 20%, and peak current through Nav1.7 as a function of time was measured in response to increasing concentrations of test compound. Manual electrophysiology refers to conventional whole-cell patch-clamping (Hamill et al., 1981). After formation of the whole-cell clamp, cells were lifted off the bottom of the dish with the patch pipette and positioned directly in front of an array of glass microperfusion tubes each with internal diameter about 250 microns, with individual compound concentrations flowing from each tube. Current as a function of time in response to increasing drug concentrations was measured with Nav1.7 fully in the resting state (holding voltage set to −140 mV) and on the same cells with the holding voltage set to produce about 20% inactivation. Compounds were not applied for a prespecified time, but for as long as required to achieve a stable level of block. For both forms of electrophysiology, offline analysis was used to correct for rundown of channel current and to determine percent inhibition as a function of drug concentration. IC50 were determined by fitting to the Hill equation.
As to `CNC(=O)c1cccc(Nc2ncnc(N3CCN(c4cccc(C)c4C)CC3)n2)c1` [Example 81], the IC50 was determined as 1.03 µM. This lies in the single-digit micromolar range.

`CNC(=O)c1cccc(Nc2ncnc(N3CCN(c4ccc(OC(F)(F)F)cc4)CC3)n2)c1` [Example 82] gave an IC50 of 1.06 µM.

With `CNC(=O)c1cccc(Nc2ncnc(N3CC(Oc4ccc(SC(F)(F)F)cc4)C3)n2)c1` [Example 83], it took 1.06 µM to reach half-maximal inhibition (IC50).

As for `CNC(=O)c1cccc(Nc2ncnc(N3CCC(Oc4ccc(Cl)c(F)c4)CC3)n2)c1` [Example 84], the half-inhibitory concentration (IC50) was 1.08 µM.

`CNC(=O)c1cccc(Nc2ncnc(N3CCC(Oc4ccccc4Cl)CC3)n2)c1` [Example 85] came in with an IC50 of 1.17 µM.

Turning to `CNC(=O)c1cccc(Nc2ncnc(N3CC(Oc4cccc(F)c4)C3)n2)c1` [Example 86], the IC50 came to 1.2 µM. This IC50 and that of the molecule before are within 1.5-fold of each other.

`CNC(=O)c1cccc(Nc2ncnc(N3CC(Oc4ccc(OC)cc4)C3)n2)c1` [Example 87] showed an IC50 of 1.23 µM.

Turning to `CNC(=O)c1cccc(Nc2ncnc(N3CCC(C(=O)c4ccccc4)CC3)n2)c1` [Example 88], the IC50 was 1.24 µM.

In turn, `CNC(=O)c1cccc(Nc2ncnc(N3CCN(c4ccccc4C)CC3)n2)c1` [Example 89] returned an IC50 of 1.26 µM.

Consider `CNC(=O)c1cc(Nc2ncnc(N3CC(COc4ccc(Cl)cc4)C3)n2)ccc1Cl` [Example 90], for which 1.26 µM corresponded to half-maximal inhibition (IC50).

For the molecule `CNC(=O)c1cccc(Nc2ncnc(N3CC(COc4ccc(Cl)c(F)c4)C3)n2)c1` [Example 91], the midpoint of inhibition, the IC50, lay at 1.29 µM. The IC50 values of the last two molecules are within 1.5-fold of each other.

With `CNC(=O)c1cccc(Nc2ncnc(N3CCc4cc(C5CC5)ccc4C3)n2)c1` [Example 92], the IC50 was determined as 1.29 µM.

`CNC(=O)c1cccc(Nc2ncnc(N3CCC(COc4ccc(F)c(F)c4)CC3)n2)c1` [Example 93] registered an IC50 of 1.3 µM.

`CNC(=O)c1cccc(Nc2ncnc(N3CC(OCc4ccc(OC(F)(F)F)cc4)C3)n2)c1` [Example 94] showed an IC50 of 1.32 µM.

Take `CNC(=O)c1cccc(Nc2ncnc(N3CCN(c4ccccc4F)CC3)n2)c1` [Example 95]: the IC50 was found to be 1.35 µM.

The molecule `CNC(=O)c1cc(Nc2ncnc(N3CC(COc4ccc(C(F)(F)F)cc4)C3)n2)ccc1Cl` [Example 96] came in with an IC50 of 1.39 µM.

In turn, `CNC(=O)c1cc(Nc2ncnc(N3CC(Oc4ccc(F)c(Cl)c4)C3)n2)ccc1Cl` [Example 97] came in with an IC50 of 1.4 µM.

For the molecule `CNC(=O)c1cc(F)cc(Nc2ncnc(N3CC(Oc4ccc(F)cc4)C3)n2)c1` [Example 98], the IC50 is 1.41 µM.

In turn, `CNC(=O)c1cccc(Nc2ncnc(N3CC=C(c4ccc(C#N)cc4)CC3)n2)c1` [Example 99] gave an IC50 of 1.43 µM.

Take `CNC(=O)c1cccc(Nc2ncnc(N3CCC(Oc4ccc(OCC(F)(F)F)cc4)CC3)n2)c1` [Example 101]: inhibition was half-maximal at 1.44 µM (IC50).

Consider `CCNC(=O)c1cccc(Nc2ncnc(N3CC(Oc4ccc(F)cc4)C3)n2)c1` [Example 102], for which inhibition was half-maximal at 1.51 µM (IC50).

In turn, `CNC(=O)c1cc(F)cc(Nc2ncnc(N3CCC(c4nc(-c5ccccc5)cs4)CC3)n2)c1` [Example 103] registered an IC50 of 1.56 µM.

Turning to `CNC(=O)c1cccc(Nc2ncnc(N3CC(Oc4cccc(Cl)c4Cl)C3)n2)c1` [Example 104], half-maximal inhibition (IC50) was put at 1.57 µM. The IC50 values of the last two molecules are within 1.5-fold of each other.

In the case of `CNC(=O)c1cccc(Nc2ncnc(N3CC(COc4ccc(Cl)cc4F)C3)n2)c1` [Example 105], the IC50 was 1.58 µM. This IC50 and that of the molecule before are within 1.5-fold of each other.

Take `CNC(=O)c1cccc(Nc2nccc(N3CC(Oc4ccc(F)c(F)c4)C3)n2)c1` [Example 106]: the IC50 stood at 1.6 µM.

In turn, `CNC(=O)c1cccc(Nc2ncnc(N3CCCN(c4ncc(C(F)(F)F)cc4Cl)CC3)n2)c1` [Example 107] had an IC50 of 1.61 µM.

As to `CNC(=O)c1cccc(Nc2ncnc(N3CCN(c4ccc(Cl)cn4)CC3)n2)c1` [Example 108], the IC50 turned out to be 1.61 µM.

On to `CNC(=O)c1cccc(Nc2ncnc(N3CCN(CCc4ccccc4)CC3)n2)c1` [Example 109], for which inhibition was half-maximal at 1.63 µM (IC50).

As for `CNC(=O)c1cccc(Nc2ncnc(N3CCc4cc(OC(F)(F)F)ccc4C3)n2)c1` [Example 110], the IC50 was found to be 1.67 µM.

On to `CNC(=O)c1cccc(Nc2ncnc(N3CC(Oc4cccc(OC(F)(F)F)c4)C3)n2)c1` [Example 111], for which half-maximal inhibition (IC50) was put at 1.69 µM. The IC50 values of the last two molecules are within 1.5-fold of each other.

As for `CNC(=O)c1cc(F)cc(Nc2ncnc(N3CC(COc4ccc(C(F)(F)F)cc4)C3)n2)c1` [Example 112], the IC50 came out at 1.78 µM. This IC50 and that of the molecule before are within 1.5-fold of each other.

`CNC(=O)c1cccc(Nc2ncnc(N3CC(OCc4ccc(Cl)cc4)C3)n2)c1` [Example 113] displayed an IC50 of 1.82 µM.

`CNC(=O)c1cccc(Nc2ncnc(N3CCN(c4cccc(C)c4)CC3)n2)c1` [Example 114] yielded an IC50 of 1.83 µM.

For the molecule `CNC(=O)c1cccc(Nc2ncnc(N3CCN(c4ccccc4)CC3)n2)c1` [Example 115], the IC50 was 1.87 µM. The IC50 values of the last two molecules are within 1.5-fold of each other.

In turn, `CNC(=O)c1cc(F)cc(Nc2ncnc(N3CCN(c4cccc(C)n4)CC3)n2)c1` [Example 116] had an IC50 of 2 µM.

`CNC(=O)c1cccc(Nc2ncnc(N3CCC(c4ccc(C)c(C)c4)CC3)n2)c1` [Example 117] had an IC50 of 2 µM.

Consider `CNC(=O)c1cccc(Nc2ncnc(N3CCC(Oc4ccc(C(F)(F)F)cc4)CC3)n2)c1` [Example 118], for which 2.02 µM corresponded to half-maximal inhibition (IC50).

Consider `CNC(=O)c1cccc(Nc2ncnc(N3CCC(Oc4cccc(OC(F)(F)F)c4)CC3)n2)c1` [Example 119], for which half-maximal inhibition (IC50) was put at 2.07 µM.

Regarding `CNC(=O)c1cccc(Nc2ncnc(N[C@H](C)CCc3ccccc3)n2)c1` [Example 120], the midpoint of inhibition, the IC50, lay at 2.09 µM.

`CNC(=O)c1cc(F)cc(Nc2ncnc(N3CC(Oc4ccc(F)c(Cl)c4)C3)n2)c1` [Example 121] had an IC50 of 2.09 µM.

As for `CNC(=O)c1cccc(Nc2ncnc(N3CCC(Oc4cccc(Cl)c4)CC3)n2)c1` [Example 122], half-maximal inhibition (IC50) was put at 2.1 µM. The IC50 values of the last two molecules are within 1.5-fold of each other.

The molecule `CNC(=O)c1cccc(Nc2ncnc(N3CCc4c(cccc4OC(F)(F)F)C3)n2)c1` [Example 123] showed an IC50 of 2.13 µM.

Consider `CNC(=O)c1cccc(Nc2ncnc(N3CCC(C#Cc4ccccc4)CC3)n2)c1` [Example 124], for which half-maximal inhibition (IC50) required 2.16 µM.

For the molecule `CNC(=O)c1cccc(Nc2nccc(N3CC(Oc4ccc(F)cc4F)C3)n2)c1` [Example 125], half-maximal inhibition (IC50) required 2.16 µM.

On to `CNC(=O)c1cccc(Nc2ncnc(N3CCN(S(=O)(=O)c4ccc(OC(F)(F)F)cc4)CC3)n2)c1` [Example 126], for which the IC50 came out at 2.29 µM.

`CCn1c2c(c3ccccc31)CN(c1ncnc(Nc3cccc(C(=O)NC)c3)n1)CC2` [Example 127] yielded an IC50 of 2.31 µM.

On to `CNC(=O)c1cccc(Nc2ncnc(N3CC(Oc4ccc(C#N)c(Cl)c4)C3)n2)c1` [Example 128], for which the IC50 is 2.31 µM.

In turn, `CNC(=O)c1ccc(Cl)c(Nc2ncnc(N3CC(Oc4ccc(F)cc4)C3)n2)c1` [Example 129] yielded an IC50 of 2.37 µM.

The molecule `CNC(=O)c1cccc(Nc2ncnc(N3CCc4cc(Cl)ccc4C3)n2)c1` [Example 130] had an IC50 of 2.44 µM.

In the case of `CNC(=O)c1cccc(Nc2ncnc(N3CCC(OCc4ccc(OC(F)(F)F)cc4)CC3)n2)c1` [Example 131], the IC50 is 2.49 µM.

In turn, `CNC(=O)c1cccc(Nc2ncnc(N3CC(COc4ccc(Cl)cc4Cl)C3)n2)c1` [Example 132] yielded an IC50 of 2.55 µM.

With `CNC(=O)c1cccc(Nc2ncnc(N3CC=C(c4ccc(C)c(C)c4)CC3)n2)c1` [Example 133], inhibition was half-maximal at 2.55 µM (IC50).

In turn, `CNC(=O)c1cccc(Nc2ncnc(N3CC(Oc4cccc(C(C)(C)C)c4)C3)n2)c1` [Example 134] came in with an IC50 of 2.58 µM.

Molecule `CNC(=O)c1cccc(Nc2ncnc(N3CCC(c4ccc(OC(F)(F)F)cc4)CC3)n2)c1` [Example 135] registered an IC50 of 2.59 µM. This IC50 and that of the molecule before are within 1.5-fold of each other.

Consider `CNC(=O)c1cccc(Nc2ncnc(N3CC=C(c4ccc(OC(F)(F)F)cc4)CC3)n2)c1` [Example 136], for which the IC50 worked out at 2.72 µM.

`CNC(=O)c1cccc(Nc2ncnc(N3CCc4c(cccc4OCC(F)(F)F)C3)n2)c1` [Example 137] registered an IC50 of 2.73 µM.

`CNC(=O)c1cccc(Nc2ncnc(N3CCc4c(cccc4OC)C3)n2)c1` [Example 138] had an IC50 of 2.74 µM.

`CNC(=O)c1cccc(Nc2ncnc(N3CCC(n4cc(-c5ccccc5)cn4)CC3)n2)c1` [Example 139] showed an IC50 of 2.74 µM.

Consider `CNC(=O)c1cccc(Nc2ncnc(N3CCC(c4nc(-c5ccccc5)no4)CC3)n2)c1` [Example 140], for which the IC50 is 2.79 µM. The IC50 values of the last two molecules are within 1.5-fold of each other.

In the case of `CNC(=O)c1cccc(Nc2ncnc(N3CC(Oc4ccccc4C(F)(F)F)C3)n2)c1` [Example 141], it took 2.79 µM to reach half-maximal inhibition (IC50).

`CNC(=O)c1cccc(Nc2ncnc(N3CCc4c(Cl)cccc4C3)n2)c1` [Example 142] showed an IC50 of 2.8 µM.

In turn, `CNC(=O)c1cccc(Nc2ncnc(N3CCC(COc4ccccc4)CC3)n2)c1` [Example 143] had a half-inhibitory concentration (IC50) of 2.8 µM. That is a single-digit micromolar value.

For `CNC(=O)c1cccc(Nc2ncnc(N3CCc4c(cnn4-c4ccc(Cl)cc4)C3)n2)c1` [Example 144], inhibition was half-maximal at 2.87 µM (IC50).

`CNC(=O)c1cccc(Nc2ncnc(N3CCC(Oc4ccc(Cl)cc4)CC3)n2)c1` [Example 145]: the IC50 worked out at 2.9 µM. This IC50 and that of the molecule before are within 1.5-fold of each other.

`CNC(=O)c1cc(F)cc(Nc2ncnc(N3CCC(Oc4ccc(OC(F)(F)F)cc4)CC3)n2)c1` [Example 146] gave an IC50 of 2.91 µM.

`CNC(=O)c1cccc(Nc2ncnc(N3CCC(C#N)(c4ccc(Cl)cc4)CC3)n2)c1` [Example 147] came in with an IC50 of 2.92 µM.

`CNC(=O)c1cccc(Nc2ncnc(N3CC(Oc4ccc(F)cc4F)C3)n2)c1` [Example 148]: the IC50 was found to be 2.95 µM.

Source of the values: patent US9334269B2, “Carboxamides as inhibitors of voltage-gated sodium channels” (AMGEN INC., priority 2010, dated 2016).
